Measured values: patent US20190022239A1, “NOVEL BIOMOLECULE CONJUGATES AND USES THEREFOR” (The University of Western Australia, priority 2016, published 2019)
Values belong to the substance of their own block, whether it stands above or below them. Ends that are not written are not given here. FAM = fluorescein label (FAM, fluorescein-labelled)

Assays:
tumour ECM = assay: Co-localisation of CSG with ECM markers in tumour tissue sections; format: binding, mouse and human
Experimental: Following incubation of whole tissue (for mouse insulinoma and human breast cancer) or 8 μm tissue cross section, (for mouse and human HCC) with FAM-CSG peptide, tissue cross sections were co-stained with 0.3 μg in 100 μL of anti-nidogen-1 (Rat anti-monoclonal mouse nidogen-1, Millipore) or anti-collagen-1 (Rabbit polyclonal collagen 1, Abeam) markers of ECM, for 1 hr at room temperature. Stained sections were washed 3× with 1×TBS buffer. Tissue sections were re-incubated with donkey anti-Rat or Rabbit IgG (H+L) secondary antibody Alexa 594 (0.4 μg in 100 μL for 30 min. at room temperature), followed by 3×wash with 1×TBS buffer. Co-localisation of CSG with these ECM markers highlights the specificity of CSG binding to tumour ECM (FIG. 2). Co-localisation was not observed in normal healthy tissue.

fibrotic tissue = assay: Binding to liver tissue sections of mice fed choline deficient diet; set-up: species or system mice (C57BL/6 strain)
Experimental: Mice (C57BL/6 strain) were fed a choline deficient diet, for 4 weeks (early liver fibrosis), 16 weeks (advanced fibrosis-cirrhosis) or 28 weeks (advanced HCC), after which liver tissue was examined. Acetone-fixed fresh frozen 8 μm issue cross sections were incubated with either 1 μM FAM-CSG or 5 μM FAM-ARA for 30 min in 1×PBS buffer at room temperature, FAM-CSG or FAM-ARA binding were confirmed using anti-FITC-HRP antibody staining.

occluded arteries = assay: Dipping assay of occluded arteries from a human patient; format: binding; details: occlusive peripheral vascular disease, after limb amputation
aorta containing plaque = assay: In vivo accumulation of FAM-CSG in aorta containing plaque; set-up: species or system mice; details: 1 hr after i.v. injection of 100 μl 1 mM FAM-CSG
human breast carcinoma = assay: Dipping of fresh human breast carcinoma samples in FAM-labelled peptide; format: binding
Experimental: Fresh, untreated samples of human breast carcimoma were dipped, 1 hr post surgery, in 20 μM FAM-CSG for 1 hr, followed by 3×1.5 min washes with 1× PBS.
This absence of binding of PAM-ARA was confirmed using anti-fluorescein antibody (data not shown).

[1] = test system: hepatocellular carcinoma or breast carcinoma; assay: FAM-CSG accumulation in tumours after tail vein injection; format: in vivo, mice; details: 100 μL of 1 mM i.v., tissue harvested 1 hr after injection
Experimental: Fluorescein-labelled (FAM)-CSG (CSGRRSSKC; SEQ ID NO:1) (100 μL of 1 mM stock made in sterile 1× PBS) was injected into the tail vein of tumour-bearing mice (hepatocellular carcinoma or breast carcinoma, in C3H and BALB/c strains, respectively). Tissue was harvested without perfusion 1 hr after injection and peptide accumulation observed under UV illumination. […] Homing was specific to tumours, with only clearance organs (intestines, kidneys) showing limited accumulation of FAM-CSG.

[2] = test system: plaques from the ApoE null mice; assay: Incubation of aorta with FAM-labelled peptide; format: binding; details: 20 nmol/ml
Experimental: To determine whether CSG also recognises fibroatheroma, healthy aorta from wild type C57BL/6 mice and aorta from ApoE null mice were incubated with 20 nmol/ml fluorescein-labelled FAM-CSG or ARA control.

Substance: CSGRRSSKC
- co-localisation with ECM markers in tumours (tumour ECM; murine insulinoma and HCC, human breast carcinoma and HCC): co-localises with two known ECM markers, collagen-1 and nidogen-1
- co-localisation with ECM markers in normal healthy tissue (tumour ECM; normal healthy tissue): not observed
- binding to fibrotic liver tissue (fibrotic tissue; 4, 16 or 28 weeks choline deficient diet, 1 μM FAM-CSG, 30 min): effectively binds fibrotic tissue at all stages
- binding to human occluded arteries and plaques (occluded arteries): specific binding of CSG to the occluded arteries and specific accumulation of CSG in plaques
- co-localisation of in vivo accumulation with ECM marker (aorta containing plaque): co-localises with the ECM marker laminin
- effect of preincubation with unlabeled peptide on FAM-CSG accumulation (human breast carcinoma; excess 1 mg unlabeled CSG): abolished the FAM-CSG specific penetration and accumulation in tumours

Substance: FAM-ARA: control fluorescein-labelled (FAM)-ARA peptide, ARALPSQRSR (SEQ ID NO:5) ({FAM}-ARALPSQRSR) [reference compound]
- binding to human breast carcinoma tissue (human breast carcinoma; control peptide): showed no binding to the human breast carcinoma tissue

- binding to normal liver (fibrotic tissue; mice fed normal chow diet): limited binding
Substance: FAM-CSG: Fluorescein-labelled (FAM)-CSG (CSGRRSSKC; SEQ ID NO:1) ({FAM}-CSGRRSSKC; cysteine pairing not given here)
- co-localisation with ECM marker nidogen-1 in fibrotic liver (fibrotic tissue; 1 μM, 30 min): co-localised with staining for the ECM marker nidogen-1
- peptide accumulation in tumours under UV illumination [1]: accumulates in both tumour types
- binding to aortic plaques [2]: specifically bound to, and accumulated in, plaques
- binding to human breast carcinoma tissue (human breast carcinoma; 20 μM for 1 hr): bound specifically to the tumour tissue and not to normal or marginal tissue
